Measured values taken from US20230150951A1, “2,5- OR 2,6-DISUBSTITUTED HYDROQUINONE DERIVATIVES WITH AT LEAST ONE CARBOXY, SULFO OR AMIDO GROUP USEFUL AS MEDICAMENTS” (OM PHARMA SA, priority 2020, published 2023).

Biological target: T1, VEGF-A (Homo sapiens, UniProt P15692)
T1 construct: purchased ProQinase GmbH
T1 sequence (P15692 27-191 isoform P15692-4): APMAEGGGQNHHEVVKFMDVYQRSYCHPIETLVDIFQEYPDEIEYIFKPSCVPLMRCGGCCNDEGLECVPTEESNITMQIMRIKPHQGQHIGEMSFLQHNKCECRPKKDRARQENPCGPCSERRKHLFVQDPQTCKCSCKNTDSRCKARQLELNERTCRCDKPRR
Test: VEGF-A induced sprouting of HUVEC, spheroid-based cellular angiogenesis assay
Assay type: cell-based
Conditions: VEGF-A 25 ng/mL preincubated with compound, 24 h, read-out: VEGF-A1 IC50
Summary of the method: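 Spheroids of 400 HUVEC (passage 3–4), embedded in collagen gel, were stimulated with FGF-1, FGF-2 or VEGF-A (final 25 ng/mL) preincubated 30 min at 37°C with compound (final 1.56–100 μM).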

Row | Compound | IC50
1 | O=C(O)c1cc(O)cc(CSCc2cc(O)cc(C(=O)O)c2O)c1O [IVc-058a, 3-((2,5-Dihydroxy-3-carboxyphenyl)methylthiomethyl)-2,5-dihydroxybenzoic acid] | 83 µM
2 | O=C(O)c1cc(O)c(CN(Cc2cc(O)c(C(=O)O)cc2O)Cc2cc(O)c(C(=O)O)cc2O)cc1O [IIIc-061a, Tris(4-carboxy-2,5-dihydroxyphenylmethyl)amine] | 21 µM
3 | O=C(O)c1cc(O)c(C(=O)Nc2ccccc2S(=O)(=O)O)cc1O [Ia-001c, 2,5-dihydroxy-4-(2-sulfophenylaminocarbonyl)benzoic acid] | ≥ 100 µM
4 | O=C(O)c1cc(NC(=O)c2cc(O)c(C(=O)Nc3ccccc3-c3nnn[nH]3)cc2O)ccc1O [Ic-001a-Tz/004a, 5-(4-(2-(1H-tetrazol-5-yl)phenylaminocarbonyl)-2,5-dihydroxybenzamido)-2-hydroxy benzoic acid] | 25 µM
5 | COC(=O)c1cc(OC(C)=O)cc(CS(=O)(=O)Cc2cc(OC(C)=O)cc(C(=O)OC)c2OC(C)=O)c1OC(C)=O [IVc-059a-E2-A4] | 25 µM
6 | O=C(Nc1ccccc1-c1nnn[nH]1)c1cc(O)c(C(=O)Nc2ccccc2-c2nnn[nH]2)cc1O [Ic-001aTz2, N1,N4-bis(2-(1H-tetrazol-5-yl)phenyl)-2,5-dihydroxyterephthalamide] | 45 µM
7 | O=C(O)c1cc(NC(=O)c2cc(O)c(C(=O)Nc3ccc(O)c(C(=O)O)c3)cc2O)ccc1O [Ic-007a, 5-(4-(3-carboxy-4-hydroxyphenylaminocarbonyl)-2,5-dihydroxybenzamido)-2-hydroxy benzoic acid] | 3.2 µM
8 | O=C(O)c1cc(O)ccc1NC(=O)c1cc(O)cc(C(=O)Nc2ccc(O)cc2C(=O)O)c1O [IIc-009a, 2-(3-(2-carboxy-4-hydroxyphenylaminocarbonyl)-2,5-dihydroxybenzamido)-5-hydroxyl benzoic acid] | 182 µM
9 | O=C(O)c1ccccc1CNC(=O)c1cc(O)cc(C(=O)O)c1O [IIa-053a, 3-(2-Carboxyphenylmethylaminocarbonyl)-2,5-dihydroxybenzoic acid] | 37 µM
10 | CC(=O)N(Cc1cc(O)c(C(=O)O)cc1O)Cc1cc(O)c(C(=O)O)cc1O [IIIc-057a, N,N-Bis(4-carboxy-2,5-dihydroxyphenylmethyl)acetamide] | 38 µM
11 | O=C(O)Cc1cc(O)c(C(=O)Nc2c(C(=O)O)cccc2C(=O)O)cc1O [IIIa-013a, 2-(4-(carboxymethyl)-2,5-dihydroxybenzamido)isophthalic acid] | 43 µM

Continued by falling IC50, values first:

Row | IC50 | Compound
12 | 19 µM | O=C(O)c1cc(NC(=O)c2cc(O)c(C(=O)O)cc2O)cc(C(=O)O)c1 [Ia-015a, 5-(4-carboxy-2,5-dihydroxybenzamido)isophthalic acid]
13 | 17 µM | O=C(O)c1cc(O)c(C(=O)Nc2ccccc2-c2nnn[nH]2)cc1O [Ia-001a-Tz, 4-(2-(1H-tetrazol-5-yl)phenyl-aminocarbonyl)-2,5-dihydroxybenzoic acid]
14 | 15 µM | O=C(O)c1cc(NC(=O)c2cc(O)c(C(=O)O)cc2O)cc(NC(=O)c2cc(O)c(C(=O)O)cc2O)c1 [Ib-010a, 3,5-bis(2,5-dihydroxy-4-carboxybenzoylamino)benzoic acid]
15 | 13 µM | O=C(O)c1cc(O)c(C(=O)Nc2ccc(-c3nnn[nH]3)cc2)cc1O [Ia-003a-Tz, 4-(4-(1H-tetrazol-5-yl)phenyl-aminocarbonyl)-2,5-dihydroxybenzoic acid]
16 | 12 µM | O=C(O)Cc1cc(O)c(C(=O)Nc2ccccc2-c2nnn[nH]2)cc1O [IIIa-001aTz]
17 | 12 µM | O=C(O)c1cc(O)cc(CS(=O)(=O)Cc2cc(O)cc(C(=O)O)c2O)c1O [IVc-059a, 3-((2,5-Dihydroxy-3-carboxyphenyl)methylsulfonylmethyl)-2,5-dihydroxybenzoic acid]
18 | 7.3 µM | O=C(O)c1cc(O)c(C(=O)Nc2ccccc2C(=O)O)cc1O [Ia-001a, 4-(2-carboxyphenylaminocarbonyl)-2,5-dihydroxybenzoic acid]
